Experimental data from patent US20250248979A1, “NOVEL GPX4 INHIBITORS AND USES THEREOF” (THE TRUSTEES OF COLUMBIA UNIVERSITY IN THE CITY OF NEW YORK, priority 2022, published 2025).
“Also recorded” adds a separate entry of the source. Where two headings read alike, the source gives them in different places.

Assays:
HepG2 cells = experiment: Cellular dose response assay, HepG2; type: cell-based, human
Source text: (§1) HT-1080 (human [Homo sapiens] […] fibrosarcoma), A-673 (human [Homo sapiens] […] Ewing's sarcoma), and SK-HEP-1 (human [Homo sapiens] […] hepatic adenocarcinoma), cells were obtained from ATCC. Huh7 (human [Homo sapiens] […] hepatocellular carcinoma), HLF (human [Homo sapiens] […] hepatocellular carcinoma), HepG2 (human [Homo sapiens] […] hepatocellular carcinoma), cells were obtained from the Cancer Cell Bank at Columbia University Irving Medical Center. HT-1080, A-673, Huh-7, and HLF cells were grown in Dulbecco's Modified Eagle Medium (DMEM) supplemented with 10% heat inactivated fetal bovine serum (HI-FBS), 1% non-essential amino acids, and 1% penicillin streptomycin. HepG2 and SK-HEP-1 cells were grown in Eagle's Minimum Essential Medium (EMEM) supplemented with 10% HI-FBS, and 1% penicillin-streptomycin. All cells were cultured at 37° C. and 5% CO2.
(§2) HT-1080, HepG2, Huh7, HLF, and SK-HEP-1 cells were seeded into opaque white 384-well plates at 1500 cells per well then incubated at 37° C. with 5% CO2 overnight. The next day, compounds of interest were dissolved in DMSO and 12-point 2-fold dilution series were prepared with and without Fer-1. Cells were treated in triplicate (final DMSO concentration of 0.4% in all wells, including DMSO-only control wells) and incubated for a further 48 hours at 37° C. and 5% CO2. Cell viability was evaluated using CellTiter-Glo (Promega G7573) and luminescence was recorded on a Victor 5 plate reader. Data were analyzed in GraphPad Prism 9 and error bars represent standard deviation values for three technical replicates in a representative experiment.

HT-1080 cells = experiment: Cellular dose response assay, HT-1080 with and without Fer-1; type: cell-based, human; settings: for Selectivity: ferroptosis selectivity; for ferroptosis induction / potency in HT-1080 cells, result in words: RSL3 as control
Source text: as §1, §2

GPX4 = target: T1, GPX4 (Homo sapiens, UniProt P36969); experiment: GPX4 activity assay in cell lysates (NADPH-coupled); type: biochemical; set-up: endogenous in cells; host or cells: A-673 cell lysate
T1 sequence (P36969 1-170 isoform P36969-2): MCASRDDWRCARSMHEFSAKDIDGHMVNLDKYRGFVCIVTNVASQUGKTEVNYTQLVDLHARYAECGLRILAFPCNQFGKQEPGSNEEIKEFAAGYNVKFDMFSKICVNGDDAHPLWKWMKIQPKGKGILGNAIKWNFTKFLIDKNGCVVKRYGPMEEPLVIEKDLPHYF
Outline: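 Native GPX4 in lysates of A-673 cells grown with 20 nM sodium selenite; lysate preincubated with compound 45 min at 37 °C in pH 8.0 buffer with 3 mM GSH, 0.5 mM NADPH and glutathione reductase. Reaction started with phosphatidylcholine hydroperoxide; NADPH consumption followed at 340 nm over 25 min; triplicates.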

[1] = HT1080 + Fer-1, read-out: IC50 (uM) HT1080 + Fer-1
[2] = HT1080, without Fer-1, read-out: IC50 (uM) HT1080
[3] = with Fer-1, Table 10, read-out: IC50 (μM) HT1080 + Fer-1
[4] = without Fer-1, Table 10, read-out: IC50 (μM) HT1080
[5] = read-out: IC50 against HT1080 cell lines

| IC50 (HT-1080 cells; [1]) | IC50 (HT-1080 cells; [2]) | GPX4% inhibition at 2.5 μM (GPX4) | Structure (SMILES) | Selectivity (HT-1080 cells; HT1080 + Fer-1 vs HT1080) | Selectivity (HT-1080 cells; IC50 with Fer-1 / IC50) | IC50 (HT-1080 cells; [3]) | IC50 (HT-1080 cells; [4]) | GPX4% inhibition at 2.5 μM (GPX4; 4th generation) | further results |
| --- | --- | --- | --- | --- | --- | --- | --- | --- | --- |
|  |  |  | O=C(Nc1c[nH]c2ccccc12)n1ccnc1 [QW-065] |  |  |  |  |  | IC50 (HepG2 cells; compounds alone, read-out: IC50 (μM) HEPG2^a): > 400 µM; IC50 (HepG2 cells; compounds and fer-1 1.0 μM, read-out: IC50 (μM) HEPG2^b): > 400 µM; IC50 (HT-1080 cells; compounds alone, read-out: IC50 (μM) HT1080^a): > 400 µM; IC50 (HT-1080 cells; compounds and fer-1 1.0 μM, read-out: IC50 (μM) HT1080^b): > 400 µM; GPX4% inhibition at 200 (μM) (GPX4; 200 μM, mean ± s.d., n = 3): 32.4 ± 2.4% |
| 2.8 µM | 1.2 µM | 68.5 ± 9.4% | Cn1nc(C(=O)NC(C)(C)C(C)(C)OC(=O)CCl)c2ccc(-c3ccc(N4CCOCC4)c(Cl)c3)cc21 [QW-731] | 2.3 |  |  |  |  |  |
| 23.9 µM | 9.5 µM | 43.2 ± 14.9% | COc1ccc(-c2ccc3c(-n4cc(CCOC(=O)CCl)nn4)nn(C)c3c2)cc1Cl [QW-755] | 2.5 |  |  |  |  |  |
| 2.5 µM | 1.2 µM | −31.1 ± 29.6% | COc1ccc(-c2ccc3c(C(=O)NC(C)(C)C(C)(C)OC(=O)CCl)nn(C)c3c2)cc1Br [QW-766] | 2.1 |  |  |  |  |  |
| 2.2 µM | 1 µM | −36.4 ± 19.3% | Cn1nc(C(=O)NC(C)(C)C(C)(C)OC(=O)CCl)c2ccc(-c3ccc(OC(C)(C)C)cc3)cc21 [QW-770] | 2.2 |  |  |  |  |  |
| 8.8 µM | 3.7 µM | −25.3 ± 6.9% | COc1ccc(-c2ccc3c(C(=O)NCC(C)(C)OC(=O)CCl)nn(C)c3c2)cc1Cl [QW-774] | 2.4 |  |  |  |  |  |
| 5.8 µM | 2.4 µM | 31.7 ± 19.5% | Cn1nc(C(=O)NC(C)(C)C(C)(C)OC(=O)CCl)c2ccc(-c3ccc(C(F)(F)F)c(Cl)c3)cc21 [QW-786] | 2.6 |  |  |  |  |  |
| 5.8 µM | 1.1 µM | −19.6 ± 18.2% | COc1ccc(-c2ccc3c(-n4cc(C(C)(C)CNC(=O)CCl)nn4)nn(C)c3c2)cc1Cl [QW-792] | 5.3 |  |  |  |  |  |
| 2.6 µM | 2.4 µM | 4.6 ± 14.4% | COc1c(F)cc(-c2ccc3c(C(=O)NC(C)(C)C(C)(C)OC(=O)CCl)nn(C)c3c2)cc1Cl [QW-796] | 1.1 |  |  |  |  |  |
| 14.3 µM | 8.4 µM | 58.1 ± 9.2% | COc1c(F)cc(-c2ccc3c(-n4cc(C(C)(C)COC(=O)CCl)nn4)nn(C)c3c2)cc1Cl [QW-801] | 1.7 |  |  |  |  |  |
|  |  |  | COc1ccc(-c2ccc3c(C(=O)NC(C)(C)C(C)(C)OC(=O)CCl)nn(Cc4ccc(Cl)cc4)c3c2)cc1Cl [QW-809] |  | 1.5 | 6.5 µM | 4.2 µM | 34.6 ± 29.6% |  |
| 3 µM | 2.1 µM | −17.0 ± 28.7% | COc1c(Cl)cc(-c2ccc3c(C(=O)NC(C)(C)C(C)(C)OC(=O)CCl)nn(C)c3c2)cc1C(F)(F)F [QW-813] | 1.4 |  |  |  |  |  |
| 16.7 µM | 0.58 µM | 79.3 ± 5.5% | COc1c(Cl)cc(-c2ccc3c(C(=O)NC(C)(C)COC(=O)CCl)nn(C)c3c2)cc1C(F)(F)F [QW-815] | 28.8 |  |  |  |  | ferroptosis induction / potency in HT-1080 cells, result in words (HT-1080 cells): sub-molar range cellular activities and decreased ferroptosis selectivity |
|  |  |  | COc1ccc(-c2ccc3c(C(=O)NC(C)(C)COC(=O)CCl)nn(Cc4ccc(Cl)cc4)c3c2)cc1Cl [QW-823] |  | 34.5 | 11.4 µM | 0.33 µM | 95.0 ± 13.1% | ferroptosis induction / potency in HT-1080 cells, result in words (HT-1080 cells): good potency in cell and selectivity to GPX4; also recorded: outstanding cytotoxicity with sub-molar scale; GPX4 inhibitory activity, result in words (GPX4): greater GPX4 inhibitory activity than QW-446 |
|  |  |  | CC(C)(COC(=O)CCl)NC(=O)c1nn(Cc2ccc(Cl)cc2)c2cc(-c3ccc(N4CCOCC4)c(Cl)c3)ccc12 [QW-824] |  | >220 | > 40 µM | 0.18 µM | 90.5 ± 7.4% | ferroptosis induction / potency in HT-1080 cells, result in words (HT-1080 cells): good potency in cell and selectivity to GPX4; also recorded: outstanding cytotoxicity with sub-molar scale; GPX4 inhibitory activity, result in words (GPX4): greater GPX4 inhibitory activity than QW-446 |
|  |  |  | C=CC(=O)OCC(C)(C)NC(=O)c1nn(Cc2ccc(Cl)cc2)c2cc(-c3ccc(OC)c(Cl)c3)ccc12 [QW-831] |  | 1.1 | 13 µM | 12 µM | 32.6 ± 61.0% |  |
|  |  |  | COc1ccc(-c2ccc3c(C(=O)NC(C)(C)COC(=O)C#C[Si](C)(C)C)nn(Cc4ccc(Cl)cc4)c3c2)cc1Cl [QW-832] |  | 37.4 | 63.6 µM | 1.7 µM | 58.9 ± 9.0% |  |
|  |  |  | CC(C)Oc1ccc(-c2ccc3c(C(=O)NC(C)(C)COC(=O)CCl)nn(Cc4ccc(Cl)cc4)c3c2)cc1Cl [QW-841] |  | 38.5 | 28.5 µM | 0.74 µM | 91.3 ± 2.0% | ferroptosis induction / potency in HT-1080 cells, result in words (HT-1080 cells): outstanding cytotoxicity with sub-molar scale |
|  |  |  | CSc1ccc(-c2ccc3c(C(=O)NC(C)(C)COC(=O)CCl)nn(Cc4ccc(Cl)cc4)c3c2)cc1Cl [QW-847] |  | 9.6 | 98.4 µM | 10.2 µM | 88.5 ± 16.1% |  |
|  |  |  | COc1ccc(-c2ccc3c(C(=O)NC(C)(C)COC(=O)CCl)nn(Cc4cc(Cl)cc(Cl)c4)c3c2)cc1Cl [QW-851] |  | >920 | > 40 µM |  | 114.9 ± 23.5% | fold change in potency in the cell viability assay, QW-851 vs QW-446 (HT-1080 cells; benzyl vs methyl on the indazole): 10 fold; IC50 (HT-1080 cells; [5]): 0.0435 µM; GPX4 inhibitory activity, result in words (GPX4): greater GPX4 inhibitory activity than QW-446 at 2.5 μM concentration |
|  |  |  | COc1ccc(-c2cc(Cl)cc(Cn3nc(C(=O)NC(C)(C)COC(=O)CCl)c4ccc(-c5ccc(OC)c(Cl)c5)cc43)c2)cc1Cl [QW-853] |  | 56.8 | 21 µM | 0.37 µM | 45.5 ± 34.3% |  |
|  |  |  | CC(C)Oc1ccc(-c2ccc3c(C(=O)NC(C)(C)COC(=O)CCl)nn(Cc4cc(Cl)cc(Cl)c4)c3c2)cc1Cl [QW-857] |  | >790 | > 40 µM |  | 66.7 ± 26.2% | IC50 (HT-1080 cells; [5]): 0.0506 µM; GPX4 inhibitory activity, result in words (GPX4): greater GPX4 inhibitory activity than QW-446 at 2.5 μM concentration |
|  |  |  | COc1ccc(-c2ccc3c(C(=O)NC(C)(C)COC(=O)CCl)nn(Cc4ccc(C(F)(F)F)cc4)c3c2)cc1Cl [QW-873] |  | 3.4 | 26.8 µM | 8 µM | 45.6 ± 39.7% |  |
|  |  |  | CC(C)(COC(=O)CCl)NC(=O)c1nn(Cc2ccc(C(F)(F)F)cc2)c2cc(-c3ccc(N4CCOCC4)c(Cl)c3)ccc12 [QW-874] |  | 1.7 | 49 µM | 28.3 µM | 57.5 ± 24.5% |  |
|  |  |  | CC(C)(COC(=O)CCl)NC(=O)c1nn(Cc2ccc(-c3ccc(N4CCOCC4)c(Cl)c3)cc2)c2cc(-c3ccc(N4CCOCC4)c(Cl)c3)ccc12 [QW-883] |  | 371.4 | 20.8 µM |  | 41.1 ± 40.9% | IC50 (HT-1080 cells; without Fer-1, Table 10, read-out: IC50 HT1080): 0.0564 µM |
|  |  |  | COc1ccc(-c2cc(Cl)cc(Cn3nc(C(=O)NC(C)(C)C(C)(C)OC(=O)CCl)c4ccc(-c5ccc(OC)c(Cl)c5)cc43)c2)cc1Cl [QW-888] |  | 2.0 | 49.6 µM | 24.5 µM | 78.7 ± 5.0% |  |
